Data reported in patent publication US20260158172A1, “CELL DEATH METHOD USING CRISPR/CAS SYSTEM HAVING SINGLE-STRAND BREAK ACTIVITY AND PARP INHIBITOR” (INSTITUTE FOR BASIC SCIENCE, priority 2023, published 2026).

Assays:
HeLa cells = assay: Cell viability (CellTiter-Glo), Experimental Example 2: CRISPR/nCas composition for cell death with or without olaparib; assay type: cell-based; settings: relative cell viability, sgRNA delivered as nCas9 D10A RNP, Mock = no guide RNA
Procedure: (§1) A total of 0.5×10^4 cells were mixed with 1 μM olaparib (AZD2281) (Selleckchem, #S1060), 1 μM rucaparib (Selleckchem, #S4948), 0.1 μM niraparib (MK-4827) (Selleckchem, #S2741), 2 μM veliparib (ABT-888) (Selleckchem, #S1004), or 10 µM iniparib (BSI-201) (Selleckchem, #S1087), and seeded onto 24-well plates.
(§2) To transfect RNPs, cells were transfected with 665 ng of the Cas protein of each Embodiment and 95 ng of the sgRNA of each Embodiment using a Lipofectamine CRISPRMAX Cas9 Transfection Reagent (Invitrogen, #CMAX00015), and then cultured for 3 days. When treated together with a PARP inhibitor, the PARP inhibitor was treated according to Experimental Example 1.6, and the RNPs were treated one day thereafter.
(§3) Cell viability was measured using a CellTiter-Glo Luminescent Cell Viability Assay (Promega, #G7571). After the transfected cells were cultured for 3 days, the cells were detached using Trypsin-EDTA (0.25%) (Gibco, #25200056). The cells were diluted in 400 μL of DMEM, followed by dispensing 100 μL of the cells, mixed with 100 μL of the CellTiter-Glo Reagent, and then incubated at room temperature for 10 minutes. Luminescence signals were measured using an Infinite 200 (Tecan) in a white opaque 96-well plate (Corning, #3917).
(§4) To evaluate the cell death effects of a CRISPR/nCas composition for cell death and a PARP inhibitor, the following experiment was conducted. Specifically, Hela cells and HCT-116 cells cultured according to Experimental Example 1.1 were treated with a PARP inhibitor (olaparib) and a CRISPR/nCas composition for cell death having the compositions shown in the following table.
(§5) The nCas protein used in this experiment was prepared according to Experimental Example 1.2, and the sgRNA used was prepared according to Experimental Example 1.3. The nCas protein and the sgRNA were administered to the cells in the form of RNPs according to Experimental Example 1.7. In the case of the PARP inhibitor, the concentrations disclosed in the above table were applied to each cell according to Experimental Example 1.6.
(§6) Thereafter, cell viability was measured according to Experimental Example 1.8.

HCT-116 cells = assay: as above; assay type: cell-based; settings: relative cell viability, HCT-116, Olaparib (+): olaparib 1 μM, sgRNA delivered as nCas9 D10A RNP, Mock = no guide RNA
Procedure: as §1, §2, §3, §4, §5, §6

HCT-116 tumors = assay: Tumor growth inhibition experiment in HCT-116 tumor xenograft mouse model; assay type: in vivo; settings: for Volume of Tumor (mm^3, Average, n = 4): HCT-116 xenograft, BALB/c nude mice, intratumoral injection every two days, eight injections, olaparib 28.5 μg
Procedure: For the delivery of RNP, lipid nanoparticles (LNPs) were prepared using an ethanol dilution method. All lipids (the molar ratio of C12-200/DOPE/cholesterol/DMG-PEG/DOTAP in the LNPs was fixed at 35/16/46.5/2.5/11.11) were dissolved in ethanol. RNPs (with a molar ratio of sgRNA to Cas9 protein of 1:1) were dissolved in PBS (pH 7.4). The two solutions were rapidly mixed by pipetting at a PBS-to-ethanol ratio of 3:1 (v/v) and a total lipid-to-sgRNA ratio of 20:1 (w/w), followed by incubation at room temperature for 15 minutes. For in vivo experiments, the RNP-loaded LNP formulation was purified by dialysis against PBS for 2 hours using a dialysis kit (Pur-A-Lyzer Midi Dialysis Kits, MWCO 3.5 kDa) and then concentrated using Amicon Ultra-15 centrifugal filters (MWCO 50 kDa), followed by intratumoral injection (50 μg of sgRNA-loaded LNP per injection). The above C12-200 was purchased from Cayman Chemical. The above DOPE, DOTAP, and DMG-PEG (MW 2000) were purchased from Avanti Polar Lipids. The above Cholesterol, the Pur-A-Lyzer Midi Dialysis Kit (MWCO, 3.5 kDa), and the Amicon Ultra-15 centrifugal filters (MWCO, 50 kDa) were purchased from Sigma. All chemicals were used without further purification.
Female BALB/c nude mice (5 weeks old) were purchased from Orient Bio and used for all animal experiments. The mice were handled in accordance with the guidelines of the Institutional Animal Care and Use Committee of Ulsan National Institute of Science and Technology ([…]-23-09). In the case of the xenograft model, 5×10^6 HCT116 cells stably expressing Cas9WT were suspended in 60 μL of PBS (pH 7.4) and mixed with 60 μL of Matrigel (BD Bioscience), followed by subcutaneous injection into the flank of each mouse. Tumor volume and body weight were measured every two days. Tumor volume was calculated using the following formula.
In the above formula, V represents the volume, a represents the length of the long axis, and b represents the length of the short axis.
When the tumor volume reached approximately 80 mm^3, the mice were randomly divided into multiple groups for experimentation.
To evaluate the antitumor efficacy of the administered materials in each group, mice bearing tumors established according to Experimental Example 1.11 were anesthetized with 1.5% isoflurane, and the administered material (PBS or LNP) was intratumorally injected every two days. A total of eight injections were performed over a period of 14 days, and the mice were sacrificed on day 25.
The tumor growth inhibition rate was calculated using the following formula.
Here, VDay0,treatment and VDay24,treatment represent the tumor volumes of the treatment group on day 0 and day 24, respectively, and VDay0,control and VDay24,control represent the tumor volumes of the control group administered with PBS on day 0 and day 24, respectively.
The tumor xenograft mouse model prepared according to Experimental Example 1.10 was randomly divided into four groups. Then, a PARP inhibitor and a CRISPR/nCas composition for cell death were administered according to Experimental Example 1.11 to confirm tumor growth inhibition effects. Specifically, 28.5 μg of olaparib diluted in PBS and the CRISPR/nCas composition for cell death were administered.

O=C(c1cc(Cc2n[nH]c(=O)c3ccccc23)ccc1F)N1CCN(C(=O)C2CC2)CC1 [Olaparib, olaparib]
Rep 1 (rel) (HeLa cells; Olaparib (+): olaparib 1 μM): 1.163
Rep 2 (rel) (HeLa cells; Olaparib (+): olaparib 1 μM): 0.967
Rep 3 (rel) (HeLa cells; Olaparib (+): olaparib 1 μM): 1.02
Average (HeLa cells; average of Rep 1-3, Olaparib (+): olaparib 1 μM): 1.05
Average (HCT-116 cells; average of Rep 1-3): 1.05
Rep 1 (rel) (HCT-116 cells): 0.9889
Rep 2 (rel) (HCT-116 cells): 1.027
Rep 3 (rel) (HCT-116 cells): 1.131
Volume of Tumor (mm^3, Average, n = 4) (HCT-116 tumors; Day 0): 82.1 mm^3
Volume of Tumor (mm^3, Average, n = 4) (HCT-116 tumors; Day 2): 117.0 mm^3
Volume of Tumor (mm^3, Average, n = 4) (HCT-116 tumors; Day 4): 172.6 mm^3
Volume of Tumor (mm^3, Average, n = 4) (HCT-116 tumors; Day 6): 241.8 mm^3
Volume of Tumor (mm^3, Average, n = 4) (HCT-116 tumors; Day 8): 320.3 mm^3
Volume of Tumor (mm^3, Average, n = 4) (HCT-116 tumors; Day 10): 371.2 mm^3
Volume of Tumor (mm^3, Average, n = 4) (HCT-116 tumors; Day 12): 476.0 mm^3
Volume of Tumor (mm^3, Average, n = 4) (HCT-116 tumors; Day 14): 542.7 mm^3
Volume of Tumor (mm^3, Average, n = 4) (HCT-116 tumors; Day 16): 610.7 mm^3
Volume of Tumor (mm^3, Average, n = 4) (HCT-116 tumors; Day 18): 702.9 mm^3
Volume of Tumor (mm^3, Average, n = 4) (HCT-116 tumors; Day 20): 847.8 mm^3
Volume of Tumor (mm^3, Average, n = 4) (HCT-116 tumors; Day 22): 907.4 mm^3
Volume of Tumor (mm^3, Average, n = 4) (HCT-116 tumors; Day 24): 996.7 mm^3
Tumor Inhibition Rate (%) (HCT-116 tumors; calculated from tumor volumes on day 0 and day 24 versus PBS control, HCT-116 xenograft mice): 8.10%
